Paper PMC5054527, “Mechanism of high affinity inhibition of the human urate transporter URAT1” (Scientific Reports, 2016)
Numbering of substitutions follows the chain as printed. Read-outs that look alike come from different tables or passages of the source.

Experiments:
r-h TM1-N URAT1 chimera = target: T1, r-h TM1-N URAT1 chimera (Rattus norvegicus, UniProt Q3ZAV1, A21T/L18V/T26V/V22M/V25M); assay: URAT1 uric acid transport activity assay; assay type: cell-based, human/rat
T1 sequence (Q3ZAV1 1-553 L18V/A21T/V22M/V25M/T26V): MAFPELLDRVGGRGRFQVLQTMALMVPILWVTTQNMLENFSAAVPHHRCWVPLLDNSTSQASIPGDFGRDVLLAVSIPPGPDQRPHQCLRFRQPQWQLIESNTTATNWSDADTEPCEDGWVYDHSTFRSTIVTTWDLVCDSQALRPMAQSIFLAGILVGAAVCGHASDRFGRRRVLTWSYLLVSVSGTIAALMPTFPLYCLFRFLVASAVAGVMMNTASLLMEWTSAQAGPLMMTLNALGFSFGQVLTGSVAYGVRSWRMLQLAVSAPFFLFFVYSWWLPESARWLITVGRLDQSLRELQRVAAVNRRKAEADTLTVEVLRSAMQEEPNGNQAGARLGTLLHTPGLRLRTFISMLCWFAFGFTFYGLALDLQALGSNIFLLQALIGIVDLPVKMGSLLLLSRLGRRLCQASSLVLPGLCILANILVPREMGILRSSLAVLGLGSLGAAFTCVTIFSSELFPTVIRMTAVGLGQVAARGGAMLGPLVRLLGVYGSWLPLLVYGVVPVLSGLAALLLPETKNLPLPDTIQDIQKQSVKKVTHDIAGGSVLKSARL
From the text: hURAT1 (GenBank BC053348.1) and rURAT1 (NCBI NM_001034943.1) genes were purchased from Origene Technologies, Inc. and subcloned into pCMV6/neo using NotI, creating pCMV6/neo-hURAT1 and pCMV6/neo-rURAT1. Mutants were produced by polymerase chain reaction (PCR) or site-directed mutagenesis using the QuikChange Lightning Multi Site-Directed Mutagenesis Kit (Agilent Technologies). […] Detailed methods are provided in Supplementary Methods, and primers are listed in Supplementary Table 1. […] Residues in rURAT1 and hOAT1 that correspond to the residues in hURAT1 were identified from aligned protein sequences (Supplementary Fig. 1)[50].
DNA (10 μg) was mixed with 30 μl of DreamFect Gold (Boca Scientific) in 2 ml OptiMem (Life Technologies). After 20 minutes, 18 ml of media containing 2 × 10^7 cells in suspension was added and mixed, and 200 μl per well were plated onto white clear-bottomed poly-D-lysine coated 96-well plates (BD Biosciences). The cells were assayed the following day.
Compounds were serially diluted into assay buffer and added to the cells for 5 minutes prior to addition of radiolabelled uric acid substrate. URAT1-expressing cells were incubated with 100 μM ^14C-uric acid for 10 minutes. […] Each treatment was measured in triplicate.
Unlabelled uric acid was prepared at a 20 mM stock just prior to use in a solution containing 20 mM dibasic potassium phosphate and 20 mM potassium hydroxide.
Nonlinear regression analyses using GraphPad Prism software were used to calculate the potency of URAT1 inhibitors (IC50 values) from log (inhibitor) versus response - variable slope (four parameters) equations. Statistical significance was assessed using Student’s unpaired t-tests.

human URAT1 = target: T2, human URAT1 (Homo sapiens, UniProt Q96S37); assay: ^3H-RDEA3170 URAT1 membrane binding assay; conditions: human URAT1 membranes; 10 nM ^3H-RDEA3170
T2 construct: hURAT1 and rURAT1 are 553 amino acid proteins with 12 transmembrane segments; expressed in transfected cells; host or cells: URAT1-transfected cells (HEK-293T per the transfection section)
T2 sequence (Q96S37 1-553): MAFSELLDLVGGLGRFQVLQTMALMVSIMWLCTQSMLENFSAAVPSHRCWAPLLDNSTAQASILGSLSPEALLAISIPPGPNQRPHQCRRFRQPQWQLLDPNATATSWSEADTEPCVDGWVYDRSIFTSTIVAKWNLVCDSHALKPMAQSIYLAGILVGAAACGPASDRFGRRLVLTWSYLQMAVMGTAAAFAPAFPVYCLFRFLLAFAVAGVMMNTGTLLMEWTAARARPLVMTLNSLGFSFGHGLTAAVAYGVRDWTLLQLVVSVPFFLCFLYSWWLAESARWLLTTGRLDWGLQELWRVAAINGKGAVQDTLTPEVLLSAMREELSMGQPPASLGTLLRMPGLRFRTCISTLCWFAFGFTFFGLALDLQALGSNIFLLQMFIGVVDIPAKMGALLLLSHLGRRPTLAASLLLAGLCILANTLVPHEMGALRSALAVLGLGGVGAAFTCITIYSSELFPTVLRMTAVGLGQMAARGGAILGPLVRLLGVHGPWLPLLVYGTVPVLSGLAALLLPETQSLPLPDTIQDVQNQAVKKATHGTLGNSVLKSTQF
Experimental: Membranes were prepared from URAT1-transfected cells. […] Cells were lysed with 100 strokes in a dounce homogenizer using a tight-fitting “B” stem. Lysates were transferred to 1.5 ml Eppendorf tubes and centrifuged at 250 rcf for 5 minutes at 2 °C, and supernatants were transferred to fresh tubes and centrifuged again at 18,000 rcf for 20 minutes at 2 °C. The pellets (membrane fractions) were resuspended in 1 ml of ice-cold binding buffer containing protease inhibitors and frozen at −80 °C. Protein was measured using the Bio-Rad protein assay dye reagent concentrate.
To initiate binding, membranes at 2.5 μg total protein were incubated with ^3H-RDEA3170 for 30 minutes at room temperature. […] The plates were then subjected to scintillation counting. All samples were assayed in triplicate.

[1] = target: T3, r-V31L rURAT1 point mutant (Rattus norvegicus, UniProt Q3ZAV1, V31L); assay: URAT1 uric acid transport activity assay; assay type: cell-based
T3 construct: expressed in transfected cells; host or cells: HEK-293T
T3 sequence (Q3ZAV1 1-553 V31L): T1 sequence (Q3ZAV1 1-553 L18V/A21T/V22M/V25M/T26V) with V18L, T21A, M22V, M25V, V26T, V31L
Method in brief: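 Readout: 14C-uric acid uptake (100 μM, 10 min) in cells transiently transfected one day earlier with mutant rURAT1. Serially diluted inhibitors were added 5 min before substrate. Triplicate points, four-parameter logistic fit for IC50.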

Q: With CCc1oc2ccccc2c1C(=O)c1cc(Br)c(O)c(Br)c1 [benzbromarone] as the molecule, how does the IC50 (r-h TM1-N URAT1 chimera) read?
A: The IC50 was 16 ± 0.76 µM.

Q: And the “displacement of ^3H-RDEA3170 binding to hURAT1” value (human URAT1)?
A: The value was “displace binding of the probe”.

Q: What about the IC50 [1] of the same molecule?
A: The IC50 was 17 ± 3.4 µM.

Q: O=C1C(CC[S+]([O-])c2ccccc2)C(=O)N(c2ccccc2)N1c1ccccc1 (stereo not drawn) [sulfinpyrazone] was tested. Which IC50 (r-h TM1-N URAT1 chimera; r-h TM1-N, HEPES pH 7.3, 100 μM 14C-uric acid, read-out: IC50 (uric acid transport)) did it give?
A: Its IC50 is 12 ± 2.6 µM.

Q: And the “displacement of ^3H-RDEA3170 binding to hURAT1” value (human URAT1)?
A: Its value is “displace binding of the probe”.

Q: And the IC50 ([1]; r-V31L, HEPES pH 7.3, 100 μM 14C-uric acid, read-out: IC50 (uric acid transport))?
A: Its IC50 is 266 ± 70 µM.

Q: Which results are given for O=C(O)CSc1nnc(Br)n1-c1ccc(C2CC2)c2ccccc12 [lesinurad, 2-((5-bromo-4-(4-cyclopropylnaphthalen-1-yl)-4H-1,2,4-triazol-3-yl)thio)acetic acid]?
A: IC50 (r-h TM1-N URAT1 chimera; r-h TM1-N, MES pH 5.5, 100 μM 14C-uric acid, read-out: IC50 (uric acid transport)): 40 ± 7 µM; displacement of ^3H-RDEA3170 binding to hURAT1 (human URAT1): displace binding of the probe; IC50 ([1]; r-V31L, MES pH 5.5, 100 μM 14C-uric acid, read-out: IC50 (uric acid transport)): 85 ± 4.5 µM
